Experimental data as given in article PMC12655682, “Screening-Identified Oxazole-4-Carboxamide KB-2777 Exhibits In Vitro Anti-Coronavirus Activity” (Pharmaceutics, 2025).
pEC50: −log10 of the molar value. “And” between values parts separate entries of the source, which are not always exact repeats. Equal values may be shown once.

Columns and labels:
HCoV-NL63 [1] = experiment: Extracellular viral RNA by RT-qPCR of supernatants, HCoV-NL63/LLC-MK2; assay type: cell-based, Human coronavirus NL63
Description: […] Viral RNA was extracted using the QIAamp Viral RNA Mini Kit (Qiagen, Hilden, Germany)according to the manufacturer’s instructions and quantified by one-step RT-qPCR on a real-time thermocycler.
EC50 values were determined from concentration–response curves generated by 2-fold serial dilutions, with at least four concentration points per curve. Each measurement was performed in triplicate technical replicates. Unless otherwise indicated, data are presented as mean ± SEM from three independent biological experiments (n = 3).
For absolute quantification, synthetic DNA (oligonucleotide) standards corresponding to the NL63, OC43, and PEDV amplicons were used. Ten-fold serial dilutions were prepared to generate standard curves. Ct values were interpolated against the curves to obtain gene copies per reaction and converted to genome copies per mL by accounting for extraction and elution volumes and the qPCR input volume.

HCoV-NL63 [2] = experiment: Time-of-addition, CPE-based cell protection (EZ-Cytox), HCoV-NL63/LLC-MK2; design: species or system Human coronavirus NL63; settings: HCoV-NL63, 5 µM and 20 µM, 48 h post-infection
Description: For antiviral activity, cells in 96-well plates were infected and treated with test compounds as indicated and incubated for 48–72 h. Cell viability was quantified by WST (EZ-Cytox) at 450 nm on the same reader. Cytoprotective effect was calculated by normalizing to infected DMSO controls and converting to percent protection: % Protection = ((V_drug + virus − V_virus-only)/(V_mock − V_virus-only)) × 100. […]
Unless otherwise specified, infections were carried out at 100 TCID50 per well with 1 h adsorption at 37 °C, and compounds were used at 20 µM. Primary readout was S protein IFA at 48 h; EZ-Cytox and TCID50 at 48 h for the same regimens are provided in Supplementary Data (Figures S14 and S15). […]
(§1) Cell protection (%) was calculated relative to the DMSO control. […] (b) Infectious progeny released under the same TOA conditions, quantified as log10(TCID₅₀/mL) from culture supernatants (see Methods). […]
(§2) Figure S15. […] Cell protection (%) was calculated relative to the DMSO control. […]
(§3) Statistics: one-way ANOVA with Dunnett’s multiple comparisons vs DMSO; *P<0.05, **P<0.01, ***P<0.001, ****P<0.0001. (b) Infectious progeny released under the same TOA conditions, quantified as log₁₀(TCID₅₀/mL) from culture supernatants by endpoint dilution on Vero E6 indicator cells (Spearman–Kärber method; see Methods). […]

HCoV-NL63 [3] = experiment: Primary antiviral screening (virus inhibition) in HCoV-NL63-infected LLC-MK2 cells; assay type: cell-based, Human coronavirus NL63
Description: For antiviral activity, cells in 96-well plates were infected and treated with test compounds as indicated and incubated for 48–72 h. Cell viability was quantified by WST (EZ-Cytox) at 450 nm on the same reader. Cytoprotective effect was calculated by normalizing to infected DMSO controls and converting to percent protection: % Protection = ((V_drug + virus − V_virus-only)/(V_mock − V_virus-only)) × 100.
We screened 11 oxazole-4-carboxamide derivatives (Figure 1) against HCoV-NL63 in LLC-MK2 cells and quantified antiviral activity and cytotoxicity (Figure 2). Several derivatives inhibited NL63 with distinct selectivity profiles. […] Visible crystals or precipitates formed at ≥50 µM without loss of viability or morphological change; therefore, downstream assays were performed at ≤25 µM.

HCoV-OC43 = experiment: Time-of-addition, TCID50 on Vero E6, HCoV-OC43; assay type: cell-based, Human coronavirus OC43; settings: HCoV-OC43, titrated on Vero E6, 48 h
Description: HCoV-OC43 (KBPV-VR-8), HCoV-NL63 (KBPV-VR-88), and PEDV DR13 (originally described in [20]) were used. HCoV-NL63 was propagated in LLC-MK2 cells, and HCoV-OC43 and PEDV DR13 were propagated in Vero E6 cells. Virus-containing supernatants were clarified (2000× g, 10 min, 4 °C), aliquoted, and stored at −80 °C. Infectious titers (TCID50/mL) were determined on the corresponding host cell lines by the Spearman–Kärber method with back-titrations included in each experiment.
For HCoV-OC43, TOA was assessed by CPE reduction in MRC-5 cells and by TCID50 on Vero E6 (no IFA collected).
Figure S14. Time-of-addition (TOA) analysis of KB-2777 against HCoV-NL63 (48 h). (a) CPE-reduction assay. KB-2777 was applied at 20 µM (blue) or 5 µM (red) under the indicated TOA conditions (Full, Pre, Co, Post, DMSO).
as §1, §2, §3

## COc1cccc(-c2oc(-c3ccc(C(F)(F)F)cc3)nc2C(=O)NCC2CC2)c1 [KB-2777, N-(cyclopropylmethyl)-5-(3-methoxyphenyl)-2-(4-(trifluoromethyl)phenyl)Oxazole-4-Carboxamide]
HCoV-NL63 [1]; HCoV-NL63, post-treatment regimen, 24 h post-infection, 0–25 µM
  inhibition of viral RNA at 24 h: minimal
HCoV-NL63 [1]; Human coronavirus NL63, LLC-MK2, HCoV-NL63, post-treatment regimen, 48 h post-infection, read-out: EC50 (viral RNA, RT-qPCR) at 48 h
  pEC50: 5.62
HCoV-NL63 [1]; Human coronavirus NL63, LLC-MK2, HCoV-NL63, post-treatment regimen, 72 h post-infection, read-out: EC50 (viral RNA, RT-qPCR) at 72 h
  pEC50: 5.28
HCoV-NL63 [1]; Human coronavirus NL63, HCoV-NL63/LLC-MK2, 72 h post-infection, n = 3, read-out: EC50 (viral RNA, RT-qPCR)
  pEC50: 5.28
HCoV-NL63 [2]
  CPE-based cell protection across TOA regimens: reproduced this pattern
HCoV-NL63 [3]; HCoV-NL63/LLC-MK2
  SI (=CC50/EC50): > 8 and >8.28
HCoV-NL63 [3]; Human coronavirus NL63, LLC-MK2, HCoV-NL63/LLC-MK2, primary screen, read-out: EC50
  pEC50: 5.22
HCoV-OC43
  TCID50 across TOA regimens: greatest antiviral effect with full exposure, intermediate activity with pre- and post-treatment, and little or no effect with co-treatment
